# Source: patent US12509444B2, “Compounds and methods for CD73 modulation and indications therefor” (Plexxikon Inc., priority 2019, dated 2025)
# pIC50: −log10 of the molar value.
# Experiments:
# [1] = target: T1, Human CD73 (amino acid residues 27-549) (Homo sapiens, UniProt P21589); assay: CD73 enzymatic assay (luciferase-based indirect assay, CellTiter-Glo); type: biochemical; details: 0.4 nM CD73, 150 μM AMP, 1 hour at room temperature
# T1 construct: Human CD73 (amino acid residues 27-549); His tag (N); made in house; host or cells: E. coli
# T1 sequence (P21589 27-549): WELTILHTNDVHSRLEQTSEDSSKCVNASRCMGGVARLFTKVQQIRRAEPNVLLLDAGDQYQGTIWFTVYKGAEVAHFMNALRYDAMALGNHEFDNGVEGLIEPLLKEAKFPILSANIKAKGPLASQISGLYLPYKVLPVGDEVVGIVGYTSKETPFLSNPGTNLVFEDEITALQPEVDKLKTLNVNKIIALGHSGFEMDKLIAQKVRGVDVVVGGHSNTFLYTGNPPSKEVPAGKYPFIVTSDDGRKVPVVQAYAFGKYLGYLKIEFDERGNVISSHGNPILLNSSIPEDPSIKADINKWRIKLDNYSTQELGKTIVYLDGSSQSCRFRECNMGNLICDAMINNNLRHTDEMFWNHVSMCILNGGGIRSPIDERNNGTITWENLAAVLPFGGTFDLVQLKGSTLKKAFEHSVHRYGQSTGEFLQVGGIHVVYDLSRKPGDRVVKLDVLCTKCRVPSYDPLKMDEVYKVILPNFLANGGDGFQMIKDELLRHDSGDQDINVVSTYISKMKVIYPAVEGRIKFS
# Procedure, shortened: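 Residual AMP inhibits luciferase, so luminescence reports CD73 turnover; read with CellTiter-Glo 2.0 plus 1 μM final ATP, 30 min. Reaction used 0.4 nM N-His CD73 (27-549, E. coli), 150 μM AMP, HEPES pH 7.4 with Tween 20, 1 h at room temperature. IC50 fitted by nonlinear regression.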
# [2] = target: T2, human CD73 (Homo sapiens, UniProt P21589); assay: Inhibitor activity against CD73 in cell based assay (CD73 expressing CHO-K1 cells); details: CHO-K1 cells expressing human CD73, 150 μM AMP, 4 hours of incubation; read-out: CHO-K1 CELL VARIANT: CD73 IC50
# T2 construct: expressed in transfected cells
# T2 sequence (P21589 27-549): T1 sequence (P21589 27-549)
# Procedure, shortened: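 Residual supernatant AMP was quantified via CellTiter-Glo luminescence (1 μM ATP added, 30 min, room temperature) after a 4 h exposure of human CD73-expressing CHO-K1 cells to 150 μM AMP plus compound, top final 10 μM, 8 points. IC50 came from nonlinear regression of percent inhibition.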
Structure (SMILES),pIC50 [1],pIC50 [2]
"O=C(NC1CCC2(CC1)CS(=O)(=O)C2)O[C@@H]1CCN(c2cn[nH]c(=O)c2Cl)C1 [P-0328, (R)-1-(5-chloro-6-oxo-1,6-dihydropyridazin-4-yl)pyrrolidin-3-yl (2,2-dioxido-2-thiaspiro[3.5]nonan-7-yl)carbamate]",5.00 to 9.00,5.00 to 9.00
"O=C(N[C@@H]1CCN(c2cn[nH]c(=O)c2Cl)C1)OC1CCCC1 [P-0030, cyclopentyl (R)-(1-(5-chloro-6-oxo-1,6-dihydropyridazin-4-yl)pyrrolidin-3-yl)carbamate]",5.00 to 9.00,4.00 to 5.00
"O=C(NCCCO)O[C@@H]1CCN(c2cn[nH]c(=O)c2Cl)C1 [P-0235, (R)-1-(5-chloro-6-oxo-1,6-dihydropyridazin-4-yl)pyrrolidin-3-yl (3-hydroxypropyl)carbamate]",5.00 to 9.00,5.00 to 9.00
"CCS(=O)(=O)N[C@H]1CC[C@H](NC(=O)O[C@@H]2CCN(c3cn[nH]c(=O)c3Cl)C2)CC1 [P-0247, (R)-1-(5-chloro-6-oxo-1,6-dihydropyridazin-4-yl)pyrrolidin-3-yl ((1r,4R)-4-(ethylsulfonamido)cyclohexyl) carbamate]",5.00 to 9.00,5.00 to 9.00
"O=CNC1CC2(C1)CC(NC(=O)O[C@@H]1CCN(c3cn[nH]c(=O)c3Cl)C1)C2 (stereo partly drawn) [P-0213, (R)-1-(5-chloro-6-oxo-1,6-dihydropyridazin-4-yl)pyrrolidin-3-yl (6-formamidospiro[3.3]heptan-2-yl)carbamate]",5.00 to 9.00,5.00 to 9.00
"O=C(NC1CC2C(C1)C2(F)F)O[C@@H]1CCN(c2cn[nH]c(=O)c2Cl)C1 (stereo partly drawn) [P-0441, (R)-1-(5-chloro-6-oxo-1,6-dihydropyridazin-4-yl)pyrrolidin-3-yl (6,6-difluorobicyclo[3.1.0]hexan-3-yl)carbamate]",5.00 to 9.00,5.00 to 9.00
"O=C(Nc1ccc(F)cc1)NC1CC2(C1)CC(NC(=O)O[C@@H]1CCN(c3cn[nH]c(=O)c3Cl)C1)C2 (stereo partly drawn) [P-0214, (R)-1-(5-chloro-6-oxo-1,6-dihydropyridazin-4-yl)pyrrolidin-3-yl (6-(3-(4-fluorophenyl)ureido)spiro[3.3]heptan-2-yl)carbamate]",5.00 to 9.00,5.00 to 9.00
"CS(=O)(=O)N1CCC(NC(=O)N[C@@H]2CCN(c3cn[nH]c(=O)c3Cl)C2)C1 (stereo partly drawn) [P-0052, 1-((R)-1-(5-chloro-6-oxo-1,6-dihydropyridazin-4-yl)pyrrolidin-3-yl)-3-(1-(methylsulfonyl)pyrrolidin-3-yl)urea]",5.00 to 9.00,4.00 to 5.00
"O=C(NC1CCCC1)O[C@@H]1CCN(c2cnn(CCO)c(=O)c2Cl)C1 [P-0392, (R)-1-(5-chloro-1-(2-hydroxyethyl)-6-oxo-1,6-dihydropyridazin-4-yl)pyrrolidin-3-yl cyclopentylcarbamate]",5.00 to 9.00,5.00 to 9.00
"O=C(NC1CCCCC1)O[C@@H]1CCN(c2cnn(-c3cccc(C(=O)O)c3)c(=O)c2Cl)C1 [P-0130, (R)-3-(5-chloro-4-(3-((cyclohexylcarbamoyl)oxy)pyrrolidin-1-yl)-6-oxopyridazin-1(6H)-yl)benzoic acid]",4.00 to 5.00,4.00 to 5.00
"CC(C)(C)OC(=O)N1CCC(NC(=O)O[C@@H]2CCN(c3cn[nH]c(=O)c3Cl)C2)CC1 [P-0089, tert-butyl (R)-4-((((1-(5-chloro-6-oxo-1,6-dihydropyridazin-4-yl)pyrrolidin-3-yl)oxy)carbonyl)amino) piperidine-1-carboxylate]",5.00 to 9.00,5.00 to 9.00
"Cc1noc(C)c1CC(=O)N1CCC(NC(=O)O[C@@H]2CCN(c3cn[nH]c(=O)c3Cl)C2)CC1 [P-0466, (R)-1-(5-chloro-6-oxo-1,6-dihydropyridazin-4-yl)pyrrolidin-3-yl (1-(2-(3,5-dimethylisoxazol-4-yl)acetyl)piperidin-4-yl)carbamate]",5.00 to 9.00,5.00 to 9.00
"O=C1CC(NC(=O)O[C@@H]2CCN(c3cn[nH]c(=O)c3Cl)C2)CCN1 (stereo partly drawn) [P-0280, (R)-1-(5-chloro-6-oxo-1,6-dihydropyridazin-4-yl)pyrrolidin-3-yl (2-oxopiperidin-4-yl)carbamate]",5.00 to 9.00,5.00 to 9.00
"O=C(NC1CCCC1)O[C@H]1CN(c2cnn(CCO)c(=O)c2Cl)C[C@@H]1F [P-0475, (3S,4S)-1-(5-chloro-1-(2-hydroxyethyl)-6-oxo-1,6-dihydropyridazin-4-yl)-4-fluoropyrrolidin-3-yl cyclopentylcarbamate]",5.00 to 9.00,5.00 to 9.00
"O=C(N[C@@H]1CC[C@H](NC(=O)c2ccccc2)C1)O[C@@H]1CCN(c2cn[nH]c(=O)c2Cl)C1 [P-0243, (R)-1-(5-chloro-6-oxo-1,6-dihydropyridazin-4-yl)pyrrolidin-3-yl ((1R,3S)-3-benzamidocyclopentyl) carbamate]",5.00 to 9.00,5.00 to 9.00
"O=C(NC1CCCC(F)(F)C1)O[C@H]1CN(c2cn[nH]c(=O)c2Cl)C[C@@H]1F (stereo partly drawn) [P-0506, (3S,4S)-1-(5-chloro-6-oxo-1,6-dihydropyridazin-4-yl)-4-fluoropyrrolidin-3-yl (3,3-difluorocyclohexyl)carbamate]",5.00 to 9.00,5.00 to 9.00
"O=C(N[C@H]1CC[C@@H](C(=O)O)CC1)O[C@@H]1CCN(c2cn[nH]c(=O)c2Cl)C1 [P-0180, (1S,4s)-4-(((((R)-1-(5-chloro-6-oxo-1,6-dihydropyridazin-4-yl)pyrrolidin-3-yl)oxy)carbonyl)amino) cyclohexane-1-carboxylic acid]",5.00 to 9.00,4.00 to 5.00
"O=C(NC1CC(F)(F)C1)O[C@@H]1CCN(c2cnn(CCO)c(=O)c2Cl)C1 [P-0431, (R)-1-(5-chloro-1-(2-hydroxyethyl)-6-oxo-1,6-dihydropyridazin-4-yl)pyrrolidin-3-yl (3,3-difluorocyclobutyl)carbamate]",5.00 to 9.00,5.00 to 9.00
"CCC(=O)N1CCC(NC(=O)O[C@@H]2CCN(c3cn[nH]c(=O)c3Cl)C2)CC1 [P-0376, (R)-1-(5-chloro-6-oxo-1,6-dihydropyridazin-4-yl)pyrrolidin-3-yl (1-propionylpiperidin-4-yl)carbamate]",5.00 to 9.00,5.00 to 9.00
"O=C(N[C@H]1CC[C@@H](O)CC1)O[C@@H]1CCN(c2cn[nH]c(=O)c2Cl)C1 [P-0274, (R)-1-(5-chloro-6-oxo-1,6-dihydropyridazin-4-yl)pyrrolidin-3-yl ((1s,4S)-4-hydroxycyclohexyl)carbamate]",5.00 to 9.00,5.00 to 9.00
"O=C(NC1CCC(C(F)(F)F)CC1)O[C@@H]1CCN(c2cn[nH]c(=O)c2Cl)C1 (stereo partly drawn) [P-0143, (R)-1-(5-chloro-6-oxo-1,6-dihydropyridazin-4-yl)pyrrolidin-3-yl (4-(trifluoromethyl)cyclohexyl) carbamate]",5.00 to 9.00,5.00 to 9.00
"CC1(NC(=O)O[C@@H]2CCN(c3cn[nH]c(=O)c3Cl)C2)CCCC1 [P-0405, (R)-1-(5-chloro-6-oxo-1,6-dihydropyridazin-4-yl)pyrrolidin-3-yl (1-methylcyclopentyl)carbamate]",5.00 to 9.00,5.00 to 9.00
"O=C(N[C@H]1CC[C@H](NS(=O)(=O)c2ccc(Cl)s2)CC1)O[C@@H]1CCN(c2cn[nH]c(=O)c2Cl)C1 [P-0301, (R)-1-(5-chloro-6-oxo-1,6-dihydropyridazin-4-yl)pyrrolidin-3-yl ((1r,4R)-4-((5-chlorothiophene)-2-sulfonamido)cyclohexyl) carbamate]",5.00 to 9.00,5.00 to 9.00
